Measurements as given in US4612285A (priority 1982, dated 1986).
Converted amounts (≈) assume the structure as drawn. “Also recorded” adds a separate entry of the source.

Key:
Solubility = format: physicochemical
Gram positive bacteria = assay: Antibacterial action, Gram positive bacteria (summary); format: cell-based; conditions: summary in words
Description: (§1) (1) Antimicrobial properties:

Gram negative bacteria = assay: Antimicrobial action, Gram negative bacteria (summary); format: cell-based; conditions: summary in words
Description: as §1

Stability in heating = format: physicochemical; conditions: vacuum concentration preferably controlled below 60° C.
Sarcoma-180 = assay: Effect on Sarcoma-180 in mice; format: in vivo, mice (ICR, male, 6 weeks age)
Description: Sarcome-180 (1×10^5 cells) is inoculated intra peritoneally in mice (ICR, male, 6 weeks age), administered the drug and the number of survival dates is observed.

Pyricularia oryzae = format: cell-based
[1] = test system: Ehrlich ascites carcinoma; assay: Effect on Ehrlich ascites carcinoma in mice; format: in vivo, mice (ddY, male, 6 weeks age)
Experimental: Ehrlich ascites carcinoma, 2×10^6 cells, is inoculated into mice (ddY, male, 6 weeks age) intra peritoneally, administered awamycin as shown in the table, number of survival dates is observed.
Administered date is designates as 0th day at tumor inoculation date. Number of survival dates is shown as mean value in 4-5 mice in one group. Increased life span is calculated according to the following equation. [formula]

[2] = test system: Pseudomonas aeruginosa P-3; assay: Antimicrobial properties (MIC); format: cell-based
Description: as §1

Salmonella typhimurium = assay: Antimicrobial properties (MIC); format: cell-based
Description: as §1

Saccharomyces sake = assay: Antimicrobial properties (MIC); format: cell-based
Description: as §1

Candida albicans = assay: Antimicrobial properties (MIC); format: cell-based
Description: as §1

[3] = test system: Klebsiella pneumonia PCI 602; assay: Antimicrobial properties (MIC); format: cell-based
Description: as §1

Sarcina lutea PCI 1001 = assay: Antimicrobial properties (MIC); format: cell-based
Description: as §1

Trichophyton ferrugineum = assay: Antimicrobial properties (MIC); format: cell-based
Description: as §1

Shigella sonnai = assay: Antimicrobial properties (MIC); format: cell-based
Description: as §1

[4] = test system: Bacillus subtilis PCI 219; assay: Antimicrobial properties (MIC); format: cell-based
Description: as §1

[5] = test system: Staphylococcus aureus FDA 209P; assay: Antimicrobial properties (MIC); format: cell-based
Description: as §1

Escherichia coli NIHJ = assay: Antimicrobial properties (MIC); format: cell-based
Description: as §1

Aspergillus nigar = assay: Antimicrobial properties (MIC); format: cell-based
Description: as §1

yeast and fungi = assay: Antimicrobial action, yeast and fungi (summary); format: cell-based; conditions: summary in words
Description: as §1

With `COC(=O)C1C(O)C(C)C(O)C(C)/C=C(/C)C(=O)c2c(OC)c(C)c(O)c3c2C(=O)C(SC)=C(NC(=O)/C(C)=C\C=C\C(C)C(O)C(C)C1O)C3=O` (stereo not shown) [awamycin] the Solubility (Solubility; alcohols (methanol, ethanol), chlorinated methanes, ketones, esters, benzene, toluene, dimethylformamide, dimethyl sulfoxide) was “soluble”, the Solubility (Solubility; diethyl ether) was “slightly soluble” and the Solubility (Solubility; hexane and petroleum ether) was “insoluble”. The Solubility (Solubility; water) was “slightly soluble”, the “antibacterial action against some Gram positive bacteria” value (Gram positive bacteria) was “shows antibacterial action against some of Gram positive bacteria; also recorded: active against Gram positive bacteria” and the “action against Gram negative bacteria” value (Gram negative bacteria) was “no action”. For the same compound, the Stability in heating (Stability in heating) was “stable in heating”, the Increased life span (Sarcoma-180; 0.75 mg/kg/day, administering day 1-9) was 64% and the “Number of survival dates (mean value)” value (Sarcoma-180; 0.75 mg/kg/day, administering day 1-9, control 14) was 23. The Increased life span (Sarcoma-180; 1.5 mg/kg/day, administering day 1-9) was 200%, the “Number of survival dates (mean value)” value (Sarcoma-180; 1.5 mg/kg/day, administering day 1-9, control 14) was 42 and the Increased life span (Sarcoma-180; 3.1 mg/kg/day, administering day 1-9) was greater than 329%. For the same compound, the “Number of survival dates (mean value)” value (Sarcoma-180; 3.1 mg/kg/day, administering day 1-9, control 14) was greater than 60, the Increased life span (Sarcoma-180; 6.3 mg/kg/day, administering day 1-9) was 186% and the “Number of survival dates (mean value)” value (Sarcoma-180; 6.3 mg/kg/day, administering day 1-9, control 14) was 40. For the same compound, the Increased life span (Sarcoma-180; 25 mg/kg/day, administering day 0, 1) was 100%, the “Number of survival dates (mean value)” value (Sarcoma-180; 25 mg/kg/day, administering day 0, 1,, control 12) was 24 and the “antitumor activity / growth inhibitory activity” value (Sarcoma-180; Sarcoma-180, in words) was “has antitumor activity; also recorded: exhibits growth inhibitory activity”. The MIC (Pyricularia oryzae) was greater than 100 µg/mL, the Increased life span ([1]; 6.3 mg/kg/day, administering date 1-9) was 73% and the “Number of survival date (median)” value ([1]; 6.3 mg/kg/day, administering date 1-9, control 22) was 38. For the same compound, the Increased life span ([1]; 25 mg/kg/day, administering date 0, 1) was 100%, the “Number of survival date (median)” value ([1]; 25 mg/kg/day, administering date 0, 1,, control 20) was 40 and the “antitumor activity / growth inhibitory activity” value ([1]; Ehrlich ascites carcinoma, in words) was “has antitumor activity; also recorded: exhibits growth inhibitory activity”. The MIC [2] was greater than 100 µg/mL, the MIC (Salmonella typhimurium) was greater than 100 µg/mL and the MIC (Saccharomyces sake) was greater than 100 µg/mL. It also gave an MIC (Candida albicans) greater than 100 µg/mL, an MIC [3] greater than 100 µg/mL and an MIC (Sarcina lutea PCI 1001) of 0.05 µg/mL (≈ 0.0672 µM). For the same compound, the MIC (Trichophyton ferrugineum) was greater than 100 µg/mL, the MIC (Shigella sonnai) was greater than 100 µg/mL and the MIC [4] was 0.1 µg/mL (≈ 0.134 µM). For the same compound, the MIC [5] was 0.8 µg/mL (≈ 1.08 µM), the MIC (Escherichia coli NIHJ) was greater than 100 µg/mL and the MIC (Aspergillus nigar) was greater than 100 µg/mL. For the same compound, the “action against yeast and fungi” value (yeast and fungi) was “no action”.
